Marks after values point to notes of the source that are not given here.
Legend:
[1] = system: male Wister rats; assay: Effect on triglyceride levels in high fructose diet rats; format: in vivo, Wistar rats; conditions: for Triglycerides % of control: actual means; for Serum Triglycerides LSMEAN: least squares mean; for Triglycerides: oral gavage, mean ± SD
Description: The effect of the DHA ethyl ester (DHA-EE) produced according to the method of Example 2 on triglyceride levels was investigated using male Wister rats. The DHA-EE used in this example contained DHA at about 93.6% (wt/wt) of the total fatty acid content of the dosage form. The effect of purified DHA-EE was compared to two different DHA-containing products: DHASCO-T® (Martek Bioscience Corporation, Columbia, Md.) and Lovaza® (Reliant Pharmaceuticals, Inc., Durham, N.C.). DHASCO-T® comprises approximately 45% DHA and 55% other fatty acids (with substantially no EPA). Lovaza® comprises approximately 41.7% DHA ethyl ester, 51.7% EPA ethyl ester, and 6.4% other fatty acids. The vehicle control comprised corn oil. 84 Wistar rats were randomized into 7 groups of 12 rats each. Each rat was administered orally a high fructose diet for 4-5 weeks to raise triglyceride levels. After 4-5 weeks, rats with a triglyceride level <300 mg/dL were excluded. Then each rat was administered either (a) a vehicle control, (b) DHA ethyl ester (0.6 g/kg/day, 1.3 g/kg/day, 2.5 g/kg/day, or 5.0 g/kg/day), (c) DHASCO-T (5.0 g/kg/day), or (d) Lovaza (5.0 g/kg/day) for 28 days by oral gavage. Diets were controlled for calories, nutrients and levels of vitamin E. Triglyceride levels of the rats were measured at 14 days and 28 days. Triglyceride values shown are averages for each treatment group, presented as actual mean values.
The triglyceride results presented below in Table 8 are calculated from the same data set as in Table 7. Triglyceride values shown in Table 8 are averages for each treatment group, presented as least squares mean values.

[2] = system: male Wister rats; assay: Effect on total cholesterol levels in rats; format: in vivo, Wistar rats; conditions: for Serum Cholesterol % of control: actual means; for Serum Cholesterol LSMEAN: least squares mean; for Serum Cholesterol: mean ± SD
Description: The effect of the DHA ethyl ester of Example 2 on cholesterol levels was investigated using male Wister rats, and was compared to DHASCO-T® and Lovaza®. The rats were administered either (a) a vehicle control, (b) DHA ethyl ester (0.6 g/kg/day, 1.3 g/kg/day, 2.5 g/kg/day, or 5.0 g/kg/day), (c) DHASCO-T (5.0 g/kg/day), or (d) Lovaza (5.0 g/kg/day) for 28 days. Cholesterol levels, i.e., total cholesterol, of the rats were measured at 14 days and 28 days. Total cholesterol values shown are averages for each treatment group, i.e., actual mean values.
The cholesterol results presented below in Table 10 are calculated from the same data set as in Table 9. Cholesterol level values shown in Table 10 are averages for each treatment group, presented as least squares mean values.

[3] = rat, in vivo
Description: The plasma DHA fatty acid area percent and plasma EPA fatty acid area percent were determine in the rats at day 1 and day 29 (post necropsy).

[4] = day 14, 0.6 g/kg/day fatty acid
[5] = day 14, 1.3 g/kg/day fatty acid
[6] = day 14, 2.5 g/kg/day fatty acid
[7] = day 14, 5.0 g/kg/day fatty acid
[8] = day 28, 0.6 g/kg/day fatty acid
[9] = day 28, 1.3 g/kg/day fatty acid
[10] = day 28, 2.5 g/kg/day fatty acid
[11] = day 28, 5.0 g/kg/day fatty acid

plasma DHA fatty acid area percent [3]: correlates with increasing dosing of DHA
SMILES: CC/C=C\C/C=C\C/C=C\C/C=C\C/C=C\C/C=C\CCC(=O)OCC [DHA-EE, ethyl docosahexaenoate]
triglyceride levels ([1]; 14 days, lowest dosage level (0.6 g/kg/day)): reduces triglyceride levels
Serum Triglycerides % of control (LSMEAN) [1, 4]: 65%
Triglycerides % of control [1, 4]: 67%
Serum Triglycerides LSMEAN [1, 4]: 168.4† mg/dL
Triglycerides [1, 4]: 176.5 ± 96.4 mg/dL
Serum Triglycerides % of control (LSMEAN) [1, 5]: 67%
Triglycerides % of control [1, 5]: 66%
Serum Triglycerides LSMEAN [1, 5]: 173.6† mg/dL
Triglycerides [1, 5]: 175.2 ± 50.6 mg/dL
Serum Triglycerides % of control (LSMEAN) [1, 6]: 47%
Triglycerides % of control [1, 6]: 44%
Serum Triglycerides LSMEAN [1, 6]: 120.2† mg/dL
Triglycerides [1, 6]: 115.5 ± 60.9 mg/dL
Serum Triglycerides % of control (LSMEAN) [1, 7]: 43%
Triglycerides % of control [1, 7]: 37%
Serum Triglycerides LSMEAN [1, 7]: 110.7† mg/dL
Triglycerides [1, 7]: 97.6 ± 47.8 mg/dL
triglyceride levels vs control ([1]; day 28, 0.6 g DHA-EE, DHASCO-T 5.0 g/kg/day): not significantly lower than control
Serum Triglycerides % of control (LSMEAN) [1, 8]: 93%
Triglycerides % of control [1, 8]: 95%
Serum Triglycerides LSMEAN [1, 8]: 174.5 mg/dL
Triglycerides [1, 8]: 182.7 ± 86.9 mg/dL
Serum Triglycerides % of control (LSMEAN) [1, 9]: 60%
Triglycerides % of control [1, 9]: 60%
Serum Triglycerides LSMEAN [1, 9]: 113.1† mg/dL
Triglycerides [1, 9]: 114.7 ± 37.2 mg/dL
Serum Triglycerides % of control (LSMEAN) [1, 10]: 60%
Triglycerides % of control [1, 10]: 56%
Serum Triglycerides LSMEAN [1, 10]: 112.6† mg/dL
Triglycerides [1, 10]: 107.9 ± 58.4 mg/dL
Serum Triglycerides % of control (LSMEAN) [1, 11]: 47%
Triglycerides % of control [1, 11]: 41%
Serum Triglycerides LSMEAN [1, 11]: 87.6† mg/dL
Triglycerides [1, 11]: 78.9 ± 46.5 mg/dL
cholesterol levels ([2]; by 14 days, lowest dosage level): reduces cholesterol levels
Serum Cholesterol % of control (LSMEAN) [2, 4]: 80%
Serum Cholesterol % of control [2, 4]: 79%
Serum Cholesterol LSMEAN [2, 4]: 72.4 mg/dL
Serum Cholesterol [2, 4]: 72.2 ± 17.7 mg/dL
Serum Cholesterol % of control (LSMEAN) [2, 5]: 82%
Serum Cholesterol % of control [2, 5]: 82%
Serum Cholesterol LSMEAN [2, 5]: 74.6 mg/dL
Serum Cholesterol [2, 5]: 75.0 ± 24.0 mg/dL
Serum Cholesterol % of control (LSMEAN) [2, 6]: 85%
Serum Cholesterol % of control [2, 6]: 85%
Serum Cholesterol LSMEAN [2, 6]: 77.4 mg/dL
Serum Cholesterol [2, 6]: 77.6 ± 23.1 mg/dL
Serum Cholesterol % of control (LSMEAN) [2, 7]: 75%
Serum Cholesterol % of control [2, 7]: 74%
Serum Cholesterol LSMEAN [2, 7]: 67.8 mg/dL
Serum Cholesterol [2, 7]: 67.1 ± 17.9 mg/dL
Serum Cholesterol % of control (LSMEAN) [2, 8]: 80%
Serum Cholesterol % of control [2, 8]: 80%
Serum Cholesterol LSMEAN [2, 8]: 80.6 mg/dL
Serum Cholesterol [2, 8]: 80.3 ± 21.8 mg/dL
Serum Cholesterol % of control (LSMEAN) [2, 9]: 62%
Serum Cholesterol % of control [2, 9]: 62%
Serum Cholesterol LSMEAN [2, 9]: 61.6† mg/dL
Serum Cholesterol [2, 9]: 62.0 ± 16.0 mg/dL
Serum Cholesterol % of control (LSMEAN) [2, 10]: 72%
Serum Cholesterol % of control [2, 10]: 72%
Serum Cholesterol LSMEAN [2, 10]: 71.3† mg/dL
Serum Cholesterol [2, 10]: 71.5 ± 17.8 mg/dL
Serum Cholesterol % of control (LSMEAN) [2, 11]: 60%
Serum Cholesterol % of control [2, 11]: 60%
Serum Cholesterol LSMEAN [2, 11]: 60.9† mg/dL
Serum Cholesterol [2, 11]: 60.2 ± 19.3 mg/dL
plasma EPA fatty acid area percent [3]: does not increase in rats administered DHA-EE or DHASCO® to the same extent that it is increased in Lovaza®

From patent US20110082205A1, “Docosahexaenoic Acid Gel Caps” (priority 2009, published 2011)
